In the OligoGym collection:
Several values for one entry are separate records, joined by “and”; a condition that tells them apart may be missing. Identical values can stand only once. HELM strings list units from the 5' end as sugar, base in round brackets, then linkage (d deoxyribose, r ribose, m 2'-O-methyl, p phosphodiester). Strings are as the collection lists them, not checked against the first reports. ss, as = sense and antisense strand; [lna] = locked nucleic acid (LNA); [fl2r] = 2'-fluoro

Settings: siRNA
Further: test system not given here.

Substance	target mRNA knockdown
RNA1{r(G)p.r(C)p.r(A)p.r(G)p.r(C)p.r(A)p.r(C)p.r(G)p.r(A)p.r(C)p.r(U)p.r(U)p.r(C)p.r(U)p.r(U)p.r(C)p.r(A)p.r(A)p.r(G)p.r(T)p.r(T)}|RNA2{m(C)p.m(U)p.m(U)p.m(G)p.m(A)p.m(A)p.m(G)p.m(A)p.m(A)p.m(G)p.m(U)p.m(C)p.m(G)p.m(U)p.m(G)p.m(C)p.m(U)p.m(G)p.m(C)p.r(T)p.r(T)}$$$RNA1{StrandType:ss}|RNA2{StrandType:as}$	16%
RNA1{r(G)p.r(G)p.r(G)p.r(G)p.r(C)p.r(U)p.r(C)p.r(U)p.r(U)p.r(C)p.m(U)p.r(A)p.r(C)p.r(A)p.m(U)p.r(U)p.r(C)p.r(C)p.r(C)p.r(T)p.r(T)}|RNA2{r(G)p.r(G)p.r(G)p.r(A)p.r(A)p.m(U)p.r(G)p.m(U)p.r(A)p.r(G)p.r(A)p.r(A)p.r(G)p.r(A)p.r(G)p.r(C)p.r(C)p.r(C)p.r(C)p.r(T)p.r(T)}$$$RNA1{StrandType:ss}|RNA2{StrandType:as}$	68%
RNA1{r(A)p.r(A)p.r(A)p.r(C)p.[fl2r](C)p.[fl2r](A)p.r(G)p.r(G)p.[fl2r](A)p.r(A)p.r(G)p.[fl2r](G)p.r(G)p.r(G)p.r(A)p.r(A)p.r(A)p.r(U)p.r(C)p.r(T)p.r(T)}|RNA2{r(G)p.r(A)p.r(U)p.r(U)p.r(U)p.r(C)p.r(C)p.r(C)p.r(C)p.r(U)p.r(U)p.r(C)p.r(C)p.[fl2r](U)p.[fl2r](G)p.r(G)p.r(U)p.r(U)p.r(U)p.r(T)p.r(T)}$$$RNA1{StrandType:ss}|RNA2{StrandType:as}$	61%
RNA1{m(C)p.r(C)p.m(U)p.r(C)p.m(G)p.r(G)p.m(A)p.r(G)p.m(A)p.r(G)p.m(U)p.r(U)p.m(C)p.r(U)p.m(A)p.r(C)p.m(U)p.r(C)p.r(U)p.r(T)p.r(T)}|RNA2{r(A)p.r(G)p.r(A)p.r(G)p.r(U)p.r(A)p.r(G)p.r(A)p.r(A)p.r(C)p.r(U)p.r(C)p.r(U)p.r(C)p.r(C)p.r(G)p.r(A)p.r(G)p.r(G)p.r(T)p.r(T)}$$$RNA1{StrandType:ss}|RNA2{StrandType:as}$	34%
RNA1{r(C)p.r(C)p.r(C)p.r(C)p.m(A)p.m(G)p.m(G)p.m(U)p.m(A)p.m(A)p.m(C)p.r(G)p.r(A)p.r(U)p.r(U)p.r(U)p.r(U)p.r(C)p.r(U)p.r(T)p.r(T)}|RNA2{r(A)p.r(G)p.r(A)p.r(A)p.r(A)p.r(A)p.r(U)p.r(C)p.r(G)p.r(U)p.r(U)p.r(A)p.r(C)p.r(C)p.r(U)p.r(G)p.r(G)p.r(G)p.r(G)p.r(T)p.r(T)}$$$RNA1{StrandType:ss}|RNA2{StrandType:as}$	79%
RNA1{r(C)p.r(G)p.r(G)p.r(A)p.r(U)p.r(C)p.m(U)p.r(A)p.m(C)p.r(A)p.r(C)p.r(C)p.r(U)p.r(U)p.m(C)p.r(A)p.r(A)p.r(G)p.r(A)p.r(T)p.r(T)}|RNA2{r(U)p.r(C)p.r(U)p.m(U)p.r(G)p.r(A)p.r(A)p.r(G)p.r(G)p.m(U)p.r(G)p.m(U)p.r(A)p.r(G)p.r(A)p.r(U)p.r(C)p.r(C)p.r(G)p.r(T)p.r(T)}$$$RNA1{StrandType:ss}|RNA2{StrandType:as}$	68%
RNA1{m(C)p.r(U)p.m(C)p.r(A)p.m(A)p.r(A)p.m(U)p.r(C)p.m(A)p.r(A)p.m(G)p.r(G)p.m(C)p.r(C)p.m(G)p.r(G)p.m(A)p.r(G)p.m(U)p.r(T)p.r(T)}|RNA2{r(A)p.r(C)p.r(U)p.r(C)p.r(C)p.m(G)p.m(G)p.r(C)p.r(C)p.r(U)p.r(U)p.m(G)p.r(A)p.r(U)p.r(U)p.r(U)p.m(G)p.r(A)p.m(G)p.r(T)p.r(T)}$$$RNA1{StrandType:ss}|RNA2{StrandType:as}$	36%
RNA1{m(C)p.r(A)p.r(G)p.r(A)p.r(G)p.m(C)p.r(A)p.r(A)p.m(U)p.m(U)p.r(G)p.m(U)p.m(U)p.m(U)p.r(A)p.m(C)p.m(C)p.m(U)p.r(A)p.r(T)p.r(T)}|RNA2{m(U)p.r(A)p.r(G)p.r(G)p.m(U)p.r(A)p.r(A)p.r(A)p.m(C)p.r(A)p.r(A)p.m(U)p.m(U)p.r(G)p.m(C)p.m(U)p.m(C)p.r(U)p.r(G)p.r(T)p.r(T)}$$$RNA1{StrandType:ss}|RNA2{StrandType:as}$	75%
RNA1{r(A)p.r(C)p.r(C)p.r(G)p.r(A)p.r(C)p.r(G)p.r(A)p.r(U)p.r(U)p.r(C)p.r(U)p.r(U)p.r(C)p.r(U)p.r(A)p.r(C)p.r(U)p.r(C)p.r(T)p.r(T)}|RNA2{r(G)p.r(A)p.r(G)p.m(U)p.r(A)p.r(G)p.r(A)p.r(A)p.r(G)p.r(A)p.r(A)p.r(U)p.r(C)p.r(G)p.r(U)p.r(C)p.r(G)p.r(G)p.r(U)p.r(T)p.r(T)}$$$RNA1{StrandType:ss}|RNA2{StrandType:as}$	68%
RNA1{[lna](A)p.r(U)p.r(C)p.r(U)p.r(G)p.r(A)p.r(A)p.r(G)p.r(A)p.r(A)p.r(G)p.r(G)p.r(A)p.r(G)p.r(A)p.r(A)p.r(A)p.r(A)p.r(A)p.[lna](T)p.[lna](T)}|RNA2{r(U)p.r(U)p.r(U)p.r(U)p.r(U)p.r(C)p.r(U)p.r(C)p.r(C)p.r(U)p.r(U)p.r(C)p.r(U)p.r(U)p.r(C)p.r(A)p.r(G)p.r(A)p.r(U)p.[lna](T)p.[lna](T)}$$$RNA1{StrandType:ss}|RNA2{StrandType:as}$	93% and 95%
RNA1{r(U)p.m(U)p.m(A)p.r(A)p.r(A)p.r(G)p.m(G)p.r(G)p.r(C)p.r(G)p.r(A)p.r(G)p.r(A)p.r(A)p.r(G)p.r(A)p.r(C)p.r(C)p.r(G)p.r(T)p.r(T)}|RNA2{r(C)p.r(G)p.r(G)p.r(U)p.r(C)p.r(U)p.r(U)p.r(C)p.r(U)p.r(C)p.r(G)p.r(C)p.r(C)p.r(C)p.r(U)p.r(U)p.m(U)p.r(A)p.r(A)p.r(T)p.r(T)}$$$RNA1{StrandType:ss}|RNA2{StrandType:as}$	85%
RNA1{r(G)p.r(C)p.r(C)p.r(U)p.r(C)p.r(U)p.r(C)p.r(U)p.r(A)p.r(U)p.r(C)p.r(C)p.r(U)p.r(U)p.r(A)p.r(G)p.r(C)p.r(U)p.r(U)p.r(T)p.r(T)}|RNA2{r(A)p.r(A)p.r(G)p.r(C)p.[fl2r](U)p.r(A)p.r(A)p.r(G)p.r(G)p.r(A)p.[fl2r](U)p.r(A)p.r(G)p.r(A)p.r(G)p.r(A)p.r(G)p.r(G)p.r(C)p.r(T)p.r(T)}$$$RNA1{StrandType:ss}|RNA2{StrandType:as}$	48%
RNA1{m(A)p.r(U)p.m(C)p.r(A)p.m(C)p.r(A)p.m(A)p.r(A)p.m(C)p.r(C)p.m(C)p.r(C)p.m(U)p.r(A)p.m(G)p.r(A)p.m(G)p.r(G)p.m(G)p.r(T)p.r(T)}|RNA2{r(C)p.r(C)p.r(C)p.r(U)p.r(C)p.r(U)p.m(A)p.r(G)p.r(G)p.r(G)p.r(G)p.r(U)p.r(U)p.r(U)p.r(G)p.r(U)p.r(G)p.m(A)p.r(U)p.r(T)p.r(T)}$$$RNA1{StrandType:ss}|RNA2{StrandType:as}$	35%
RNA1{r(U)p.m(U)p.r(A)p.r(A)p.r(A)p.r(G)p.r(G)p.r(G)p.r(C)p.r(G)p.r(A)p.r(G)p.r(A)p.r(A)p.r(G)p.r(A)p.r(C)p.r(C)p.r(G)p.r(T)p.r(T)}|RNA2{r(C)p.r(G)p.r(G)p.r(U)p.r(C)p.r(U)p.r(U)p.r(C)p.r(U)p.r(C)p.r(G)p.r(C)p.r(C)p.r(C)p.r(U)p.r(U)p.m(U)p.r(A)p.r(A)p.r(T)p.r(T)}$$$RNA1{StrandType:ss}|RNA2{StrandType:as}$	87%
RNA1{r(C)p.r(U)p.r(U)p.r(A)p.r(C)p.r(G)p.r(C)p.r(U)p.r(G)p.r(A)p.r(G)p.r(U)p.r(A)p.r(C)p.r(U)p.r(U)p.r(C)p.r(G)p.r(A)p.r(T)p.r(T)}|RNA2{r(U)p.r(C)p.r(G)p.r(A)p.r(A)p.r(G)p.r(U)p.r(A)p.r(C)p.r(U)p.r(C)p.r(A)p.r(G)p.r(C)p.r(G)p.r(U)p.[lna](A)p.r(A)p.r(G)p.r(T)p.r(T)}$$$RNA1{StrandType:ss}|RNA2{StrandType:as}$	93%
